Measurements: patent publication US20080145313A1, “Compositions and Methods for the Treatment and Prevention of Neoplastic Disorders” (Genesis Research & Development Corporation Limited, priority 2006, published 2008)

Assays:
[1] = test system: target transcript mRNA in A549 cells; test: Level of mRNA of target transcript in A549 cells by quantitative RT-PCR (Tables 12 and 13); format: cell-based, human; settings: 24 h post-transfection
Summary of the method: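 Target mRNA was measured by SYBR Green quantitative RT-PCR using random-primed cDNA, normalised to HPRT and Lamin. Samples came from A549 cells 24 h post-transfection with 0.1, 1.0 or 10 nM siRNA.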

A549 cells = test: Growth inhibition of siRNA-transfected A549 cells, SYBR Green I DNA content; format: cell-based, human; settings: 10 nM siRNA, DNA content 96 hours after transfection; for Growth Inhibition in A549 cells by 10 nM siRNA: transporter gene targets
Summary of the method: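 Growth read-out: cellular DNA quantified with SYBR Green I (485/535 nm) 96 h after transfection, cells frozen, thawed and lysed in PBS/1% Triton X-100, pH 7. Cells (A549, 5×10^3 cells/cm^2) received 10 nM siRNA by RNAiMAX; non-specific siRNA served as control; triplicate wells averaged.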

Substance	mRNA knockdown of transporter gene target transcript, 0.1 nM ([1]; 0.1 nM siRNA)	mRNA knockdown of transporter gene target transcript, 1 nM ([1]; 1 nM siRNA)	Growth Inhibition in A549 cells by 10 nM siRNA (A549 cells)	mRNA knockdown of energy and metabolism gene target transcript, 0.1 nM ([1]; 0.1 nM siRNA)	mRNA knockdown of energy and metabolism gene target transcript, 1 nM ([1]; 1 nM siRNA)	Growth Inhibition in A549 cells (A549 cells)
SEQ ID NO: 4973: siRNA targeting ABCC5 (MRP5) (chain 1 TAAGATGGCAACAACGGGTCCTCCA; chain 2 UAAGAUGGCAACAACGGGUCCUCCA; chemistry not given here; one strand in two spellings)	− (<50% mRNA knockdown)	− (<50% mRNA knockdown)	− (no growth inhibition)	–	–	–
SEQ ID NO: 4970: siRNA targeting ABCC4 (MRP4) (chain 1 AATCTTGGAAATCTCCTTCTTTCTC; chain 2 AAUCUUGGAAAUCUCCUUCUUUCUC; chemistry not given here; one strand in two spellings)	++ (70-90% mRNA knockdown)	++ (70-90% mRNA knockdown)	− (no growth inhibition)	–	–	–
SEQ ID NO: 4892: siRNA targeting SLC2A1 (GLUT1) (chain 1 TGTCTTATCACTTTGGCTGGCTCCC; chain 2 UGUCUUAUCACUUUGGCUGGCUCCC; Antisense strand given in DNA and RNA notation, chemistry not given here; one strand in two spellings)	− (<50% mRNA knockdown)	− (<50% mRNA knockdown)	+ (inhibits by at least 50%)	–	–	–
SEQ ID NO: 4902: siRNA targeting SLC7A5 (LAT1) (chain 1 AAAGAGGCCGCTGTATAATGCCAGC; chain 2 AAAGAGGCCGCUGUAUAAUGCCAGC; Antisense strand given in DNA and RNA notation, chemistry not given here; one strand in two spellings)	++ (70-90% mRNA knockdown)	++ (70-90% mRNA knockdown)	+ (inhibits by at least 50%)	–	–	–
SEQ ID NO: 4929: siRNA targeting SLC25A10 (DIC) (chain 1 TAGGTCATCTGTCTGCACAGCGAGG; chain 2 UAGGUCAUCUGUCUGCACAGCGAGG; chemistry not given here; one strand in two spellings)	− (<50% mRNA knockdown)	+ (50-70% mRNA knockdown)	− (no growth inhibition)	–	–	–
SEQ ID NO: 4898: siRNA targeting SLC2A12 (GLUT12) (chain 1 TATTGTTGTTGGTTGACAGGTTTCC; chain 2 UAUUGUUGUUGGUUGACAGGUUUCC; Antisense strand given in DNA and RNA notation, chemistry not given here; one strand in two spellings)	+++ (>90% mRNA knockdown)	+++ (>90% mRNA knockdown)	− (no growth inhibition)	–	–	–
SEQ ID NO: 4965: siRNA targeting ATP7A (chain 1 TTATAATGCAGTGTCATCATCTTCC; chain 2 UUAUAAUGCAGUGUCAUCAUCUUCC; chemistry not given here; one strand in two spellings)	− (<50% mRNA knockdown)	− (<50% mRNA knockdown)	− (no growth inhibition)	–	–	–
SEQ ID NO: 4956: siRNA targeting ATP6V1C1 (chain 1 TAGACTTCTAGTTAGCAAACTTCCT; chain 2 UAGACUUCUAGUUAGCAAACUUCCU; chemistry not given here; one strand in two spellings)	++ (70-90% mRNA knockdown)	++ (70-90% mRNA knockdown)	− (no growth inhibition)	–	–	–
SEQ ID NO: 4906: siRNA targeting SLC7A11 (xCT) (chain 1 TAATGAGAAATTTCCCAGTAGCCGC; chain 2 UAAUGAGAAAUUUCCCAGUAGCCGC; Antisense strand given in DNA and RNA notation, chemistry not given here; one strand in two spellings)	+ (50-70% mRNA knockdown)	++ (70-90% mRNA knockdown)	− (no growth inhibition)	–	–	–
SEQ ID NO: 4954: siRNA targeting ATP6V1B2 (chain 1 TTTGGATTTCTTTACCAAACCAGCC; chain 2 UUUGGAUUUCUUUACCAAACCAGCC; chemistry not given here; one strand in two spellings)	+ (50-70% mRNA knockdown)	+ (50-70% mRNA knockdown)	− (no growth inhibition)	–	–	–
SEQ ID NO: 4958: siRNA targeting ATP6V1E1 (chain 1 AGGAATTGCCTTCTGCACTGCAGCC; chain 2 AGGAAUUGCCUUCUGCACUGCAGCC; chemistry not given here; one strand in two spellings)	+ (50-70% mRNA knockdown)	–	− (no growth inhibition)	–	–	–
SEQ ID NO: 4907: siRNA targeting SLC3A2 (4F2hc) (chain 1 TTTGTTGGATTCGAGTAGGCTCAGG; chain 2 UUUGUUGGAUUCGAGUAGGCUCAGG; Antisense strand given in DNA and RNA notation, chemistry not given here; one strand in two spellings)	− (<50% mRNA knockdown)	− (<50% mRNA knockdown)	− (no growth inhibition)	–	–	–
SEQ ID NO: 4928: siRNA targeting SLC25A10 (DIC) (chain 1 AATAAAGCTGGCGACAAAGTGAGTG; chain 2 AAUAAAGCUGGCGACAAAGUGAGUG; chemistry not given here; one strand in two spellings)	++ (70-90% mRNA knockdown)	++ (70-90% mRNA knockdown)	++ (inhibits by at least 75%)	–	–	–
SEQ ID NO: 5308: Stealth siRNA targeting RRM2 (chain 1 TTATACATCTGCCAGATATCATGGT; chain 2 UUAUACAUCUGCCAGAUAUCAUGGU; Stealth siRNA, chemical pattern not given here; one strand in two spellings)	–	–	–	++ (70-90% mRNA knockdown)	++ (70-90% mRNA knockdown)	++ (inhibits by at least 75%)
SEQ ID NO: 4968: siRNA targeting ATP7B (chain 1 ATATCCCGTGGACCGATAATTTCCG; chain 2 AUAUCCCGUGGACCGAUAAUUUCCG; chemistry not given here; one strand in two spellings)	− (<50% mRNA knockdown)	++ (70-90% mRNA knockdown)	− (no growth inhibition)	–	–	–
SEQ ID NO: 4948: siRNA targeting ATP2B4 (PMCA4) (chain 1 ATCTGAGTCTGGATACGGTTCAGGC; chain 2 AUCUGAGUCUGGAUACGGUUCAGGC; chemistry not given here; one strand in two spellings)	− (<50% mRNA knockdown)	++ (70-90% mRNA knockdown)	− (no growth inhibition)	–	–	–
SEQ ID NO: 4889: siRNA targeting SLC1A5 (ASCT2) (chain 1 TTGAAGAAGCGGATAAGCAGCTCCC; chain 2 UUGAAGAAGCGGAUAAGCAGCUCCC; Antisense strand given in DNA and RNA notation, chemistry not given here; one strand in two spellings)	++ (70-90% mRNA knockdown)	++ (70-90% mRNA knockdown)	− (no growth inhibition)	–	–	–
SEQ ID NO: 4910: siRNA targeting SLC5A6 (SMVT1) (chain 1 AAGGCAAGGCCTCTGGAAAGCATGA; chain 2 AAGGCAAGGCCUCUGGAAAGCAUGA; Antisense strand given in DNA and RNA notation, chemistry not given here; one strand in two spellings)	− (<50% mRNA knockdown)	+ (50-70% mRNA knockdown)	− (no growth inhibition)	–	–	–
SEQ ID NO: 4966: siRNA targeting ATP7A (chain 1 ATAGCTCCCAATTTGAGGTACTTGG; chain 2 AUAGCUCCCAAUUUGAGGUACUUGG; chemistry not given here; one strand in two spellings)	− (<50% mRNA knockdown)	− (<50% mRNA knockdown)	− (no growth inhibition)	–	–	–
SEQ ID NO: 4893: siRNA targeting SLC2A1 (GLUT1) (chain 1 TTCATCATCAGCATTGAATTCCGCC; chain 2 UUCAUCAUCAGCAUUGAAUUCCGCC; Antisense strand given in DNA and RNA notation, chemistry not given here; one strand in two spellings)	− (<50% mRNA knockdown)	− (<50% mRNA knockdown)	++ (inhibits by at least 75%)	–	–	–
